Data published in patent US10143730B2, “Peptides and combination of peptides for use in immunotherapy against various cancers” (immatics biotechnologies GmbH, priority 2015, dated 2018).

Tests used:
HLA-A*02 = molecular target: T1, HLA-A*02 (Homo sapiens, UniProt P04439, D140Y/D185E/D98H/E176V/E277Q/G131W/G231S/I119V/I121R/I166T/I218V/L300P/N151K/N90K/P208A/P217A/Q86G/Q94H/R138H/R169H); experiment: MHC binding assay, UV-ligand exchange with beta2m ELISA (peptide exchange yield); settings: binding to HLA-A*02
T1 construct: made in house
Summary of the method: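 pMHC complexes formed by UV-induced cleavage of a photolabile peptide and exchange with candidate peptide; exchange yield measured by streptavidin-capture ELISA detecting β2m with HRP anti-β2m, TMB, A450. Exchange samples diluted 100-fold; refolded HLA-A*02:01/MLA-001 monomers (15-500 ng/ml) as standards; incubations 1 h, 37 °C.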

[1] = test system: CD8+ T cells of healthy HLA-A*02+ donors; experiment: In vitro T-cell priming with aAPCs loaded with HLA-A*02/peptide complexes and anti-CD28, multimer staining; type: cell-based, human; settings: for Wells positive [%] (in vitro immunogenicity): HLA-A*02 peptides (SEQ ID 1-157, 229-266), peptide-specific multimer+ CD8+ T cells after aAPC priming; for Wells (in vitro immunogenicity): HLA-A*02-binding peptides (Table 7A), Table 19A
Excerpt: FIGS. 4A to 4D show exemplary results of peptide-specific in vitro CD8+ T cell responses of a healthy HLA-A*02+ donor. CD8+ T cells were primed using artificial APCs coated with anti-CD28 mAb and HLA-A*02 in complex with Seq ID No 27 peptide (FIG. 4A, left panel), Seq ID No 229 peptide (FIG. 4B, left panel), Seq ID No 230 peptide (FIG. 4C, left panel) and Seq ID No 235 peptide (FIG. 4D, left panel), respectively. After three cycles of stimulation, the detection of peptide-reactive cells was performed by 2D multimer staining with A*02/Seq ID No 27 (FIG. 4A), A*02/Seq ID No 229 (FIG. 4B), A*02/Seq ID No 230 (FIG. 4C) or A*02/Seq ID No 235 (FIG. 4D). Right panels (FIGS. 4A, 4B, 4C and 4D) show control staining of cells stimulated with irrelevant A*02/peptide complexes. Viable singlet cells were gated for CD8+ lymphocytes. Boolean gates helped excluding false-positive events detected with multimers specific for different peptides. Frequencies of specific multimer+ cells among CD8+ lymphocytes are indicated.
In order to obtain information regarding the immunogenicity of the TUMAPs of the present invention, the inventors performed investigations using an in vitro T-cell priming assay based on repeated stimulations of CD8+ T cells with artificial antigen presenting cells (aAPCs) loaded with peptide/MHC complexes and anti-CD28 antibody.
In order to perform in vitro stimulations by artificial antigen presenting cells loaded with peptide-MHC complex (pMHC) and anti-CD28 antibody, the inventors first isolated CD8+ T cells from fresh HLA-A*02 leukapheresis products via positive selection using CD8 microbeads (Miltenyi Biotec, Bergisch-Gladbach, Germany) of healthy donors obtained from the University clinics Mannheim, Germany, after informed consent.
PBMCs and isolated CD8+ lymphocytes were incubated in T-cell medium (TCM) until use consisting of RPMI-Glutamax (Invitrogen, Karlsruhe, Germany) supplemented with 10% heat inactivated human AB serum (PAN-Biotech, Aidenbach, Germany), 100 U/ml Penicillin/100 μg/ml Streptomycin (Cambrex, Cologne, Germany), 1 mM sodium pyruvate (CC Pro, Oberdorla, Germany), 20 μg/ml Gentamycin (Cambrex). 2.5 ng/ml IL7 (PromoCell, Heidelberg, Germany) and 10 U/ml IL-2 (Novartis Pharma, Nürnberg, Germany) were also added to the TCM at this step.
Generation of pMHC/anti-CD28 coated beads, T-cell stimulations and readout was performed in a highly defined in vitro system using four different pMHC molecules per stimulation condition and 8 different pMHC molecules per readout condition.
The purified co-stimulatory mouse IgG2a anti human CD28 Ab 9.3 (Jung et al., 1987) was chemically biotinylated using Sulfo-N-hydroxysuccinimidobiotin as recommended by the manufacturer (Perbio, Bonn, Germany). Beads used were 5.6 μm diameter streptavidin coated polystyrene particles (Bangs Laboratories, Illinois, USA).
pMHC used for positive and negative control stimulations were A*0201/MLA-001 (peptide […] (SEQ ID NO. 303) from modified Melan-A/MART-1) and A*0201/DDX5-001 ([…] from DDX5, SEQ ID NO. 304), respectively.
800.000 beads/200 μl were coated in 96-well plates in the presence of 4×12.5 ng different biotin-pMHC, washed and 600 ng biotin anti-CD28 were added subsequently in a volume of 200 μl. Stimulations were initiated in 96-well plates by co-incubating […] CD8+ T cells with 2×10^5 washed coated beads in 200 μl TCM supplemented with 5 ng/ml IL-12 (PromoCell) for 3 days at 37° C. Half of the medium was then exchanged by fresh TCM supplemented with 80 U/ml IL-2 and incubating was continued for 4 days at 37° C. This stimulation cycle was performed for a total of three times. For the pMHC multimer readout using 8 different pMHC molecules per condition, a two-dimensional combinatorial coding approach was used as previously described (Andersen et al., 2012) with minor modifications encompassing coupling to 5 different fluorochromes. […]

Substance: 96 (LLVSHLYLV; listed as Homo sapiens) [compound 96]
- Peptide exchange (MHC class I binding score, peptide exchange yield) (HLA-A*02): ++ (20%-49% = ++)
- Wells positive [%] (in vitro immunogenicity) [1]: ++ (20%-49% = ++)

Substance: 23 (SLFSDEFKV; listed as Homo sapiens) [compound 23]
- Peptide exchange (MHC class I binding score, peptide exchange yield) (HLA-A*02): +++ (50%-75% = +++)
- Wells positive [%] (in vitro immunogenicity) [1]: ++++ (> = 70% = ++++)

Substance: 251 (ALSVLRLAL; listed as Homo sapiens) [compound 251]
- Peptide exchange (MHC class I binding score, peptide exchange yield) (HLA-A*02): +++ (50%-75% = +++)
- Wells positive [%] (in vitro immunogenicity) [1]: ++ (20%-49% = ++)

Substance: 27 (RLMEENWNA; listed as Homo sapiens) [compound 27]
- Peptide exchange (MHC class I binding score, peptide exchange yield) (HLA-A*02): +++ (50%-75% = +++)
- Wells positive [%] (in vitro immunogenicity) [1]: +++ (50%-69% = +++)

Substance: 249 (GLCERLVSL; listed as Homo sapiens) [compound 249]
- Peptide exchange (MHC class I binding score, peptide exchange yield) (HLA-A*02): ++++ (> = 75% = ++++)
- Wells positive [%] (in vitro immunogenicity) [1]: + (<20% = +)

Substance: 7 (ILDHEVPSL; listed as Homo sapiens) [compound 7]
- Peptide exchange (MHC class I binding score, peptide exchange yield) (HLA-A*02): +++ (50%-75% = +++)
- Wells positive [%] (in vitro immunogenicity) [1]: ++ (20%-49% = ++)

Substance: 150 (VLYDRPLKI; listed as Homo sapiens) [compound 150]
- Peptide exchange (MHC class I binding score, peptide exchange yield) (HLA-A*02): +++ (50%-75% = +++)
- Wells positive [%] (in vitro immunogenicity) [1]: ++ (20%-49% = ++)

Substance: 151 (SVLDSTAKV; listed as Homo sapiens) [compound 151]
- Peptide exchange (MHC class I binding score, peptide exchange yield) (HLA-A*02): ++ (20%-49% = ++)
- Wells positive [%] (in vitro immunogenicity) [1]: ++ (20%-49% = ++)

Substance: 26 (ALQEELTEL; listed as Homo sapiens) [compound 26]
- Peptide exchange (MHC class I binding score, peptide exchange yield) (HLA-A*02): +++ (50%-75% = +++)
- Wells positive [%] (in vitro immunogenicity) [1]: + (<20% = +)

Substance: 18 (ILLDLTDNRL; listed as Homo sapiens) [compound 18]
- Peptide exchange (MHC class I binding score, peptide exchange yield) (HLA-A*02): +++ (50%-75% = +++)
- Wells positive [%] (in vitro immunogenicity) [1]: + (<20% = +)

Substance: 247 (ALYEGYATV; listed as Homo sapiens) [compound 247]
- Peptide exchange (MHC class I binding score, peptide exchange yield) (HLA-A*02): +++ (50%-75% = +++)
- Wells positive [%] (in vitro immunogenicity) [1]: ++ (20%-49% = ++)

Substance: 232 (KIFPAALQLV; listed as Homo sapiens) [compound 232]
- Peptide exchange (MHC class I binding score, peptide exchange yield) (HLA-A*02): +++ (50%-75% = +++)
- Wells positive [%] (in vitro immunogenicity) [1]: ++ (20%-49% = ++)

Substance: 14 (ILAKDLFEI; listed as Homo sapiens) [compound 14]
- Peptide exchange (MHC class I binding score, peptide exchange yield) (HLA-A*02): ++++ (> = 75% = ++++)
- Wells positive [%] (in vitro immunogenicity) [1]: ++ (20%-49% = ++)

Substance: 11 (ALSPSYLTV; listed as Homo sapiens) [compound 11]
- Peptide exchange (MHC class I binding score, peptide exchange yield) (HLA-A*02): +++ (50%-75% = +++)
- Wells positive [%] (in vitro immunogenicity) [1]: ++ (20%-49% = ++)

Substance: 6 (ALFDSLRHV; listed as Homo sapiens) [compound 6]
- Peptide exchange (MHC class I binding score, peptide exchange yield) (HLA-A*02): +++ (50%-75% = +++)
- Wells positive [%] (in vitro immunogenicity) [1]: ++ (20%-49% = ++)

Substance: 292 (GMMTAILGV; listed as Homo sapiens) [compound 292]
- Wells (in vitro immunogenicity) [1]: + (<20% = +)

Substance: 20 (GLSQITNQL; listed as Homo sapiens) [compound 20]
- Peptide exchange (MHC class I binding score, peptide exchange yield) (HLA-A*02): +++ (50%-75% = +++)
- Wells positive [%] (in vitro immunogenicity) [1]: ++ (20%-49% = ++)

Substance: 90 (FLQDLEQRL; listed as Homo sapiens) [compound 90]
- Peptide exchange (MHC class I binding score, peptide exchange yield) (HLA-A*02): +++ (50%-75% = +++)
- Wells positive [%] (in vitro immunogenicity) [1]: + (<20% = +)

Substance: 248 (YLDRFLAGV; listed as Homo sapiens) [compound 248]
- Peptide exchange (MHC class I binding score, peptide exchange yield) (HLA-A*02): ++++ (> = 75% = ++++)
- Wells positive [%] (in vitro immunogenicity) [1]: ++ (20%-49% = ++)

Substance: 230 (KLQNIMMLL; listed as Homo sapiens) [compound 230]
- Peptide exchange (MHC class I binding score, peptide exchange yield) (HLA-A*02): ++ (20%-49% = ++)
- Wells positive [%] (in vitro immunogenicity) [1]: ++++ (> = 70% = ++++)

Substance: 144 (ALLAFFPGL; listed as Homo sapiens) [compound 144]
- Peptide exchange (MHC class I binding score, peptide exchange yield) (HLA-A*02): +++ (50%-75% = +++)
- Wells positive [%] (in vitro immunogenicity) [1]: +++ (50%-69% = +++)

Substance: 138 (ALLAKILQI; listed as Homo sapiens) [compound 138]
- Peptide exchange (MHC class I binding score, peptide exchange yield) (HLA-A*02): +++ (50%-75% = +++)
- Wells positive [%] (in vitro immunogenicity) [1]: ++ (20%-49% = ++)

Substance: 35 (FLLPFSTVYL; listed as Homo sapiens) [compound 35]
- Peptide exchange (MHC class I binding score, peptide exchange yield) (HLA-A*02): +++ (50%-75% = +++)
- Wells positive [%] (in vitro immunogenicity) [1]: + (<20% = +)

Substance: 92 (GLLFSLRSV; listed as Homo sapiens) [compound 92]
- Peptide exchange (MHC class I binding score, peptide exchange yield) (HLA-A*02): ++++ (> = 75% = ++++)
- Wells positive [%] (in vitro immunogenicity) [1]: ++ (20%-49% = ++)

Substance: 12 (GLLPLLHRA; listed as Homo sapiens) [compound 12]
- Peptide exchange (MHC class I binding score, peptide exchange yield) (HLA-A*02): ++++ (> = 75% = ++++)
- Wells positive [%] (in vitro immunogenicity) [1]: ++++ (> = 70% = ++++)

Substance: 29 (YLLDPSITL; listed as Homo sapiens) [compound 29]
- Peptide exchange (MHC class I binding score, peptide exchange yield) (HLA-A*02): +++ (50%-75% = +++)
- Wells positive [%] (in vitro immunogenicity) [1]: + (<20% = +)

Substance: 235 (KIIDFLSAL; listed as Homo sapiens) [compound 235]
- Peptide exchange (MHC class I binding score, peptide exchange yield) (HLA-A*02): +++ (50%-75% = +++)
- Wells positive [%] (in vitro immunogenicity) [1]: +++ (50%-69% = +++)

Substance: 5 (GIVAHIQEV; listed as Homo sapiens) [compound 5]
- Peptide exchange (MHC class I binding score, peptide exchange yield) (HLA-A*02): +++ (50%-75% = +++)
- Wells positive [%] (in vitro immunogenicity) [1]: + (<20% = +)

Substance: 1 (LLYPEPWSV; listed as Homo sapiens) [compound 1]
- Peptide exchange (MHC class I binding score, peptide exchange yield) (HLA-A*02): ++++ (> = 75% = ++++)
- Wells positive [%] (in vitro immunogenicity) [1]: ++ (20%-49% = ++)

Substance: 291 (KLDETGNSL; listed as Homo sapiens) [compound 291]
- Wells (in vitro immunogenicity) [1]: + (<20% = +)

Substance: 293 (FLVDGSWSI; listed as Homo sapiens) [compound 293]
- Wells (in vitro immunogenicity) [1]: + (<20% = +)
